Test results reported in patent US20140081017A1, “Histone Deacetylase Inhibitors for Enhancing Activity of Antifungal Agents” (METHYLGENE INC., priority 2012, published 2014).
In brackets after ≈: the same amount, converted by molar mass. Where two headings read alike, the source gives them in different places.

How the values were obtained:
Candida glabrata = assay: Minimal Inhibitory Concentration (MIC) assay, broth microdilution per CLSI; format: cell-based; conditions: Nakaseomyces glabratus, read-out: Minimum Inhibitory Concentrations against Yeast Isolates, Candida glabrata;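 also: two read times 24 hr and 48 hr of incubation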
How it was run: (§1)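 Steps: overnight yeast growth on Sabouraud dextrose agar at 35° C; 0.5 McFarland saline suspension diluted 1:100 in RPMI (0.165 M MOPS, pH 7.0); inoculation into twofold compound dilutions; incubation 24-48 hr at 35° C; MIC scored as lowest concentration without visible growth.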

Candida albicans = assay: as above; format: cell-based; conditions: Candida albicans, read-out: Minimum Inhibitory Concentrations against Yeast Isolates, Candida albicans;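 also: two read times 24 hr and 48 hr of incubation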
How it was run: as §1

Candida parapsilosis = assay: as above; format: cell-based; conditions: Lodderomyces parapsilosis, read-out: Minimum Inhibitory Concentrations against Yeast Isolates, Candida parapsilosis;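 also: two read times 24 hr and 48 hr of incubation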
How it was run: as §1

C. glabrata = assay: Checkerboard FIC assay in combination with fluconazole (MIC alone and in combination, FICI); format: cell-based, Candida glabrata; conditions: for FICI of combination resulting in fluconazole MIC of: 2 ug/mL / FICI of combination resulting in fluconazole MIC of: 4 ug/mL / FICI of combination resulting in fluconazole MIC of: 8 ug/mL: FICI calculated using a fluconazole MIC of 16 μg/mL; for FICI of combination resulting in fluconazole MIC of: 2 ug/mL (value in parenthesis) / FICI of combination resulting in fluconazole MIC of: 4 ug/mL (value in parenthesis) / FICI of combination resulting in fluconazole MIC of: 8 ug/mL (value in parenthesis): FICI using a fluconazole MIC of 128 μg/mL; for MIC: Nakaseomyces glabratus; for Multiple of compound MIC to synergize fluconazole MIC to 2 ug/mL / Multiple of compound MIC to synergize fluconazole MIC to 4 ug/mL / Multiple of compound MIC to synergize fluconazole MIC to 8 ug/mL: concentration in combination as multiple of the compound's MIC alone; for Multiple of compound MIC to synergize fluconazole MIC to 2 ug/mL: fluconazole MIC 2 ug/mL; for Multiple of compound MIC to synergize fluconazole MIC to 4 ug/mL: fluconazole MIC 4 ug/mL; for Multiple of compound MIC to synergize fluconazole MIC to 8 ug/mL: fluconazole MIC 8 ug/mL; for Concentration of Methylgene compound to synergize fluconazole MIC to 2 ug/mL / Concentration of Methylgene compound to synergize fluconazole MIC to 4 ug/mL / Concentration of Methylgene compound to synergize fluconazole MIC to 8 ug/mL: in combination with fluconazole; for Concentration of Methylgene compound to synergize fluconazole MIC to 2 ug/mL: fluconazole MIC lowered to 2 ug/mL; for Concentration of Methylgene compound to synergize fluconazole MIC to 4 ug/mL: fluconazole MIC lowered to 4 ug/mL; for Concentration of Methylgene compound to synergize fluconazole MIC to 8 ug/mL: fluconazole MIC lowered to 8 ug/mL
How it was run: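 C. glabrata was tested by CLSI broth microdilution checkerboard, crossing 2-fold dilutions of compound with 2-fold dilutions of fluconazole. The medium was RPMI with 0.165 M MOPS at pH 7.0, inoculated from a 0.5 McFarland suspension diluted 1:100, then incubated about 48 h at 35 °C. Single-agent MICs gave the FIC and FICI values.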

[1] = 24 hr reading (first value of cell 24 hr/48 hr)
[2] = 48 hr reading (second value of cell 24 hr/48 hr)
[3] = MIC of the example compound alone against C. glabrata in the checkerboard assay, approximately 48 hr, read-out: Methylgene MIC
[4] = test compound alone, C. glabrata, approx. 48 hr at 35° C., read-out: Compound MIC

| SMILES | MIC (Candida glabrata; [1]) [mg/L] | MIC (Candida glabrata; [2]) [mg/L] | MIC (Candida albicans; [1]) [mg/L] | MIC (Candida albicans; [2]) [mg/L] | MIC (Candida parapsilosis; [1]) [mg/L] | MIC (Candida parapsilosis; [2]) [mg/L] | FICI of combination resulting in fluconazole MIC of: 2 ug/mL (C. glabrata; C. glabrata) | FICI of combination resulting in fluconazole MIC of: 4 ug/mL (C. glabrata; C. glabrata) | FICI of combination resulting in fluconazole MIC of: 8 ug/mL (C. glabrata; C. glabrata) | FICI of combination resulting in fluconazole MIC of: 2 ug/mL (value in parenthesis) (C. glabrata; C. glabrata) | FICI of combination resulting in fluconazole MIC of: 4 ug/mL (value in parenthesis) (C. glabrata; C. glabrata) | FICI of combination resulting in fluconazole MIC of: 8 ug/mL (value in parenthesis) (C. glabrata; C. glabrata) | MIC (C. glabrata; [3]) [mg/L] | MIC (C. glabrata; [4]) [mg/L] | Multiple of compound MIC to synergize fluconazole MIC to 2 ug/mL (C. glabrata) | Multiple of compound MIC to synergize fluconazole MIC to 4 ug/mL (C. glabrata) | Multiple of compound MIC to synergize fluconazole MIC to 8 ug/mL (C. glabrata) | Concentration of Methylgene compound to synergize fluconazole MIC to 2 ug/mL (C. glabrata; C. glabrata) [mg/L] | Concentration of Methylgene compound to synergize fluconazole MIC to 4 ug/mL (C. glabrata; C. glabrata) [mg/L] | Concentration of Methylgene compound to synergize fluconazole MIC to 8 ug/mL (C. glabrata; C. glabrata) [mg/L] |
| --- | --- | --- | --- | --- | --- | --- | --- | --- | --- | --- | --- | --- | --- | --- | --- | --- | --- | --- | --- | --- |
| O=C(Cc1ccc(CCCC(=O)c2ccccc2)cc1)NO [Example 28, N-hydroxy-2-(4-(4-oxo-4-phenylbutyl)phenyl)acetamide] | 8 (≈ 26.9 µM) | 16 (≈ 53.8 µM) | 32 (≈ 108 µM) | 32 (≈ 108 µM) | > 32 | > 32 | 0.313 | 0.250 | 0.313 | 0.266 | 0.156 | 0.125 | 16 | 16 | (¼x) | (⅛x) | ( 1/16x) | 4 | 2 | 1 |
| O=C(Cc1ccc(CCCC(F)(F)c2ccccc2)cc1)NO [Example 29, 2-(4-(4,4-difluoro-4-phenylbutyl)phenyl)-N-hydroxyacetamide] | 0.5 (≈ 1.57 µM) | 1 (≈ 3.13 µM) | 1 (≈ 3.13 µM) | 2 (≈ 6.26 µM) | 1 (≈ 3.13 µM) | 2 (≈ 6.26 µM) | 0.563 | 0.625 | 0.500 | 0.516 | 0.531 | 0.313 | 1 | 1 | (½x) | (½x) | (¼x) | 0.5 | 0.5 | 0.25 |
| CC(CCCc1ccc(CC(=O)NO)cc1)c1ccccc1 (stereo not shown) [Example 30, N-hydroxy-2-(4-(4-phenylpentyl)phenyl)acetamide] | 0.25 (≈ 0.841 µM) | 0.5 (≈ 1.68 µM) | 0.5 (≈ 1.68 µM) | 0.5 (≈ 1.68 µM) | 0.12 (≈ 0.403 µM) | 0.25 (≈ 0.841 µM) | 0.563 | 0.365 | 0.490 | 0.516 | 0.271 | 0.303 | 0.5 | 0.5 | (½x) | (¼x) | (¼x) | 0.25 | 0.12 | 0.12 |
| Nc1ccc(CCCCc2ccc(CC(=O)NO)cc2)cc1 [Example 31, 2-(4-(4-(4-aminophenyl)butyl)phenyl)-N-hydroxyacetamide] | > 8 | > 8 | > 16 | > 16 | > 16 | > 16 | 0.375 | 0.500 | 0.625 | 0.266 | 0.281 | 0.188 | 4 | 4 | (¼x) | (¼x) | (⅛x) | 1 | 1 | 0.5 |
| Nc1cccc(CCCCc2ccc(CC(=O)NO)cc2)c1 [Example 32, 2-(4-(4-(3-aminophenyl)butyl)phenyl)-N-hydroxyacetamide] | > 32 | > 32 | 32 (≈ 107 µM) | 32 (≈ 107 µM) | 32 (≈ 107 µM) | 32 (≈ 107 µM) | 0.625 | 0.500 | 0.625 | 0.516 | 0.281 | 0.188 | 2 | 2 | (½x) | (¼x) | (⅛x) | 1 | 0.5 | 0.25 |
| Nc1ccccc1CCCCc1ccc(CC(=O)NO)cc1 [Example 33, 2-(4-(4-(2-aminophenyl)butyl)phenyl)-N-hydroxyacetamide] | 4 (≈ 13.4 µM) | 8 (≈ 26.8 µM) | 8 (≈ 26.8 µM) | 16 (≈ 53.6 µM) | 8 (≈ 26.8 µM) | 16 (≈ 53.6 µM) | 0.313 | 0.375 | 0.500 | 0.266 | 0.281 | 0.313 | 8 | 8 | (¼x) | (¼x) | (¼x) | 2 | 2 | 2 |
| CN1CCC(C(=O)Nc2ccc(CCCCc3ccc(CC(=O)NO)cc3)cc2)CC1.Cl [Example 34, N-(4-(4-(4-(2-(hydroxyamino)-2-oxoethyl)phenyl)butyl)phenyl)-1-methylpiperidine-4-carboxamide hydrochloride] | > 64 | > 64 | > 64 | > 64 | > 64 | > 64 | 0.375 | 0.375 | 0.625 | 0.266 | 0.156 | 0.188 | 8 | 8 | (¼x) | (⅛x) | (⅛x) | 2 | 1 | 1 |
| COCCOCCOCC(=O)Nc1ccc(CCCCc2ccc(CC(=O)NO)cc2)cc1 [Example 35, N-hydroxy-2-(4-(4-(4-(2-(2-(2-methoxyethoxy)ethoxy)acetamido)phenyl)butyl)phenyl)acetamide] | 64 (≈ 140 µM) | > 64 | 64 (≈ 140 µM) | 64 (≈ 140 µM) | 64 (≈ 140 µM) | 64 (≈ 140 µM) | 0.375 | 0.500 | 0.625 | 0.266 | 0.281 | 0.188 | 4 | 4 | (¼x) | (¼x) | (⅛x) | 1 | 1 | 0.5 |
